Patent US7399775B2, “β-amyloid protein production/secretion inhibitor” (Daiichi Pharmaceutical Co., Ltd., priority 2001, dated 2008)

Row | SMILES | melting point [°C]
1 | O=S(=O)(c1ccc(Cl)cc1)C1(c2cccnc2Cl)CCCCCC1 [Example 108, 2-Chloro-3-[1-(4-chlorophenylsulfonyl)cycloheptyl]pyridine] | 168 to 169
2 | O=S(=O)(c1ccc(Cl)cc1)C1(c2cccnc2Cl)CCCCC1 [Example 109, 2-Chloro-3-[1-(4-chlorophenylsulfonyl)cyclohexyl]pyridine] | 129 to 131
3 | O=S(=O)(c1ccc(Cl)cc1)C1(c2cnccc2Cl)CCCCC1 [Example 110, 4-Chloro-3-[1-(4-chlorophenylsulfonyl)cyclohexyl]pyridine] | 145 to 147
4 | O=S(=O)(c1ccc(Cl)cc1)C(c1ccncc1)C1CCCC1 (centres unmarked) [Example 121, 4-[(4-Chlorophenylsulfonyl)(cyclopentyl)methyl]pyridine] | 133 to 135
5 | O=S(=O)(c1ccc(Cl)cc1)C(c1ccncc1)C1CCOCC1 (centres unmarked) [Example 122, 4-[(4-Chlorophenylsulfonyl)(tetrahydropyran-4-yl)methyl]pyridine] | 208 to 209
6 | CN1CCC(C(c2ccncc2)S(=O)(=O)c2ccc(Cl)cc2)CC1 (centres unmarked) [Example 124, 4-[(4-Chlorophenylsulfonyl)(1-methylpiperidin-4-yl)methyl]pyridine] | 176 to 177
7 | O=S(=O)(c1ccc(Cl)cc1)C(c1ccccn1)c1cc(F)ccc1F (centres unmarked) [Example 135, 2-[[(4-Chlorophenyl)sulfonyl]-(2,5-difluorophenyl)methyl]pyridine] | 171 to 172
8 | Cc1ccc(C(c2cc(F)ccc2F)S(=O)(=O)c2ccc(Cl)cc2)nc1 (centres unmarked) [Example 137, 2-[[(4-Chlorophenyl)sulfonyl]-(2,5-difluorophenyl)methyl]-5-methylpyridine] | 159 to 160
9 | Cc1ccnc(C(c2cc(F)ccc2F)S(=O)(=O)c2ccc(Cl)cc2)c1 (centres unmarked) [Example 138, 2-[[(4-Chlorophenyl)sulfonyl]-(2,5-difluorophenyl)methyl]-4-methylpyridine] | 116 to 117
10 | COc1cccnc1C(c1cc(F)ccc1F)S(=O)(=O)c1ccc(Cl)cc1 (centres unmarked) [Example 139, 2-[[(4-Chlorophenyl)sulfonyl]-(2,5-difluorophenyl)methyl]-3-methoxypyridine] | 184 to 185
11 | C=CCOc1cccnc1C(c1cc(F)ccc1F)S(=O)(=O)c1ccc(Cl)cc1 (centres unmarked) [Example 140, 3-Allyloxy-2-[[(4-chlorophenyl)sulfonyl]-(2,5-difluorophenyl)methyl]pyridine] | 119 to 120
12 | Cn1c(Cl)cnc1C(c1cc(F)ccc1F)S(=O)(=O)c1ccc(Cl)cc1 (centres unmarked) [Example 151, 2-[[(4-Chlorophenyl)sulfonyl]-(2,5-difluorophenyl)methyl]-1-methyl-5-chloro-1H-imidazole] | 179 to 180
13 | O=S(=O)(c1ccc(Cl)cc1)C(c1nccs1)c1cc(F)ccc1F (centres unmarked) [Example 152, 2-[[(4-Chlorophenyl)sulfonyl]-(2,5-difluorophenyl)methyl]thiazole] | 163 to 164
14 | COc1ccc(-n2ccnc2C(c2cc(F)ccc2F)S(=O)(=O)c2ccc(Cl)cc2)cc1 (centres unmarked) [Example 153, 2-[[(4-Chlorophenyl)sulfonyl]-(2,5-difluorophenyl)methyl]-1-(4-methoxyphenyl)-1H-imidazole] | 150 to 151
15 | O=S(=O)(c1ccc(Cl)cc1)C1(c2nnnn2Cc2ccccc2)CCCCC1 [Example 195, 1-Benzyl-5-[1-(4-chlorobenzenesulfonyl)cyclohexyl]-1H-tetrazole] | 154 to 155
16 | O=S(=O)(c1ccc(Cl)cc1)C1(c2nnn(Cc3ccccc3)n2)CCCCC1 [Example 197, 2-Benzyl-5-[1-(4-chlorobenzenesulfonyl)cyclohexyl]-2H-tetrazole] | 133 to 134
17 | O=C(CC(c1cc(F)ccc1F)S(=O)(=O)c1ccc(Cl)cc1)N1CCCC1 (centres unmarked) [Example 198, 3-[(4-Chlorophenyl)sulfonyl]-3-(2,5-difluorophenyl)-1-(1-pyrrolildinyl)-1-propanone] | 122 to 125
18 | O=C(O)CCC(c1cc(F)ccc1F)S(=O)(=O)c1ccc(Cl)cc1 (centres unmarked) [Example 200, 4-[(4-Chlorophenyl)sulfonyl]-4-(2,5-difluorophenyl)butyric Acid] | 157 to 158
19 | O=C(CCC(c1cc(F)ccc1F)S(=O)(=O)c1ccc(Cl)cc1)N1CCCC1 (centres unmarked) [Example 201, 4-[(4-Chlorophenyl)sulfonyl]-4-(2,5-difluorophenyl)-1-(1-pyrrolildinyl)-1-butanone] | 134 to 135
20 | O=C(O)CCCC(c1cc(F)ccc1F)S(=O)(=O)c1ccc(Cl)cc1 (centres unmarked) [Example 202, 5-[(4-chlorophenyl)sulfonyl]-5-(2,5-difluorophenyl)-1-valeric Acid] | 151 to 152

The remaining lines, values ahead:

Row | melting point [°C] | SMILES
21 | 91 to 93 | COc1cccc(C(CCCCS(C)(=O)=O)S(=O)(=O)c2ccc(Cl)cc2)c1 (centres unmarked) [Example 83, 1-[1-(4-Chlorophenylsulfonyl)-5-(methylsulfonyl)pentyl]-3-methoxybenzene]
22 | 136 to 138 | COc1ccc(C(CCCCS(C)(=O)=O)S(=O)(=O)c2ccc(Cl)cc2)cc1 (centres unmarked) [Example 85, 1-[1-(4-Chlorophenylsulfonyl)-5-(methylsulfonyl)pentyl]-4-methoxybenzene]
23 | 104 to 106 | CS(=O)(=O)CCCCC(C1CCCCC1)S(=O)(=O)c1ccc(Cl)cc1 (centres unmarked) [Example 95, 1-Chloro-4-[1-cyclohexyl-5-(methylsulfonyl)pentylsulfonyl]benzene]
24 | 68 to 70 | CS(=O)(=O)CCCCC(Cc1ccccc1)S(=O)(=O)c1ccc(Cl)cc1 (centres unmarked) [Example 97, 4-[1-Benzyl-5-(methylsulfonyl)pentylsulfonyl]-1-chlorobenzene]
25 | 156 to 157 | CS(=O)(=O)CCCCC(c1cnccc1Cl)S(=O)(=O)c1ccc(Cl)cc1 (centres unmarked) [Example 105, 4-Chloro-3-[1-[(4-chlorophenyl)sulfonyl]-5-(methylsulfonyl)pentyl]pyridine]
26 | 123 to 125 | CS(=O)(=O)CCCCC(c1cscn1)S(=O)(=O)c1ccc(Cl)cc1 (centres unmarked) [Example 112, 4-[1-(4-Chlorophenylsulfonyl)-5-(methylsulfonyl)pentyl]thiazole]
27 | 95 to 96 | CS(=O)(=O)CCCCC(c1cncs1)S(=O)(=O)c1ccc(Cl)cc1 (centres unmarked) [Example 114, 5-[1-[(4-Chlorophenyl)sulfonyl]-5-(methylsulfonyl)pentyl]thiazole]
28 | 118 to 119 | CS(=O)(=O)CCCCC(c1nccs1)S(=O)(=O)c1ccc(Cl)cc1 (centres unmarked) [Example 116, 2-[1-[(4-Chlorophenyl)sulfonyl]-5-(methylsulfonyl)pentyl]thiazole]
29 | 164 to 166 | CS(=O)(=O)CCCCC(c1cnco1)S(=O)(=O)c1ccc(Cl)cc1 (centres unmarked) [Example 118, 5-[1-(4-Chlorophenylsulfonyl)-5-(methylsulfonyl)pentyl]oxazole]
30 | 109 to 111 | CCCCC(c1ccncc1)S(=O)(=O)c1ccc(Cl)cc1 (centres unmarked) [Example 120, 4-[1-(4-Chlorophenylsulfonyl)pentyl]pyridine]
31 | 78 to 80 | CN(C)CCCC(c1ccncc1)S(=O)(=O)c1ccc(Cl)cc1 (centres unmarked) [Example 125, 4-(4-Chlorophenylsulfonyl)-N,N-dimethyl-4-(pyridin-4-yl)butylamine]
32 | 91 to 92 | CN(C)CCC(c1ccncc1)S(=O)(=O)c1ccc(Cl)cc1 (centres unmarked) [Example 126, 3-(4-Chlorophenylsulfonyl)-N,N-dimethyl-3-(pyridin-4-yl)propylamine]
